Values of other authors as cited in US7932388B2, “Isotopically enriched N-substituted piperazines and methods for the preparation thereof” (DH Technologies Development Pte. Ltd., priority 2004, dated 2011).

Conditions: alcohol (leaving group) of the trifluoroacetate ester; no method or conditions printed

N-hydroypyrrolidinone [NHP]
pKa: 9.38
